Test results published in paper PMC5706432, “Host-guest interaction of β-cyclodextrin with isomeric ursolic acid and oleanolic acid: physicochemical characterization and molecular modeling study” (Journal of Biomedical Research, 2017).

Experiment: UV-vis absorption, stability constant by modified Benesi-Hildebrand equation
Assay type: physicochemical
Details: UV absorption spectra, ethanol/water (50%, v/v), 1:1 host-guest complex assumed
Protocol: Furthermore, absorption spectra obtained with various concentrations of β-CD (0 to 1.44 mmol/L) and added to a constant drug (0.03753 mmol/L UA or 0.038715 mmol/L OA) concentration in ethanol/water (50%, v/v) were scanned by the UV spectrophotometry (Shimadzu UV-2401 visible spectrophotometer, Shimadzu Corp., Tokyo, Japan). The stability constant was calculated according to the modified Benesi-Hildebrand equation Eq. (1) assuming the formation of a 1:1 host-guest complex^[[14]^].
(1) 1/ΔA=1/KΔε[D]01/[CD]0+1/Δε[D]0 Where ΔA was the change in absorbance of drugs at λmax in the presence and absence of β-CD. [D]0 and [CD]0 were the total concentration of added drug and β-CD, respectively. Δε represented the difference in molar absorptivities between the free drug and the inclusion complex, and K was the stability constant.

SMILES | stability constant K [L/mol]
CC1(C)CC[C@]2(C(=O)O)CC[C@]3(C)C(=CC[C@@H]4[C@@]5(C)CC[C@H](O)C(C)(C)[C@@H]5CC[C@]43C)[C@@H]2C1 [OA, oleanolic acid] | 5157
C[C@H]1[C@H](C)CC[C@]2(C(=O)O)CC[C@]3(C)C(=CC[C@@H]4[C@@]5(C)CC[C@H](O)C(C)(C)[C@@H]5CC[C@]43C)[C@H]12 [UA, ursolic acid] | 5642
